{
  "source": "patent US20230055500A1",
  "about": "“COMPOSITION FOR PREVENTING OR TREATING ISCHEMIA REPERFUSION INJURY COMPRISING NADPH OXIDASE 1 INHIBITOR AS ACTIVE INGREDIENT” (KYUNGPOOK NATIONAL UNIVERSITY INDUSTRY-ACADEMIC COOPERATION …, priority 2020, published 2023)",
  "key": {"[1]": {"test_system": "renal ischemia-reperfusion injury (IRI)", "assay": "Renal ischemia-reperfusion injury mouse model: renal function tests and histology", "format": "in vivo, C57BL/6 mice", "settings": "for tissue damage due to ischemia-reperfusion (IRI-mediated damage): mouse model of renal ischemia reperfusion, overall statement", "method": "(§1) C57BL/6 mice were intraperitoneally injected with 60 mg/kg of ML171, a selective NOX inhibitor or excipient at a time, renal ischemia-reperfusion injury (IRI) was induced by clamping bilateral renal vessels for 30 min. MDCK cells were incubated with H2O2 (1.4 mM) for 1 h to induce oxidative stress and treated with ML171 (1 and 2.5 μM). Renal damage was estimated using renal function tests and histology. NOX expression, oxidative stress markers, apoptosis assays and MAPK pathways were also evaluated in renal tissue and MDCK cells."}, "[2]": {"test_system": "NOX", "assay": "NOX mRNA expression in mouse kidney (IRI model)", "format": "in vivo", "settings": "C57BL/6 mice, renal IRI, 60 mg/kg intraperitoneal; FIG. 2a, 2b", "method": "as §1"}, "[3]": {"test_system": "reactive oxygen species (ROS)", "assay": "Reactive oxygen species measurement in the kidney (IRI model)", "format": "in vivo", "settings": "C57BL/6 mice, renal IRI, 60 mg/kg intraperitoneal; FIG. 2d, 2e", "method": "as §1"}, "[4]": {"test_system": "apoptosis", "assay": "Apoptosis assays in the kidney (Caspase-3 activity, TUNEL, BCL-2/BAX; IRI model)", "format": "in vivo", "settings": "C57BL/6 mice, renal IRI, 60 mg/kg intraperitoneal", "method": "as §1"}, "[5]": {"test_system": "ERK", "assay": "MAPK pathway western blot in kidney tissue (IRI model)", "format": "in vivo", "settings": "C57BL/6 mice, renal IRI, 60 mg/kg intraperitoneal, FIG. 5a, 5b", "method": "as §1"}, "[6]": {"test_system": "MDCK cells", "assay": "NOX-related gene and oxidative stress marker expression in H2O2-treated MDCK cells", "format": "cell-based", "settings": "H2O2 1.4 mM 1 h, ML171 1 and 2.5 μM", "method": "as §1"}, "[7]": {"test_system": "MDCK cells", "assay": "ROS production in H2O2-treated MDCK cells", "format": "cell-based", "settings": "H2O2 1.4 mM 1 h, ML171 1 and 2.5 μM, FIG. 6f", "method": "as §1"}, "[8]": {"test_system": "MDCK cells", "assay": "Apoptosis assays in H2O2-treated MDCK cells (Caspase-3 activity, BCL-2/BAX, TUNEL)", "format": "cell-based", "settings": "H2O2 1.4 mM 1 h, ML171 1 and 2.5 μM", "method": "as §1"}, "[9]": {"test_system": "ERK", "assay": "MAPK pathway (ERK phosphorylation) in H2O2-treated MDCK cells", "format": "cell-based", "settings": "H2O2 1.4 mM 1 h, ML171 1 and 2.5 μM, FIG. 8a, 8b", "method": "as §1"}},
  "note": "Entries after “also recorded” stand apart in the source; their conditions may differ.",
  "data": [
    {"smiles": "CC(=O)c1ccc2c(c1)Nc1ccccc1S2", "note": "[ML171]", "values": [
      {"measurement": "level of kidney damage in the blood (renal function test)", "setting": "[1]; C57BL/6 mice, renal IRI (bilateral clamping 30 min), 60 mg/kg intraperitoneal, FIG. 1a, 1b", "value": "a significant decrease"},
      {"measurement": "damage to renal tubular epithelial cells, PAS staining", "setting": "[1]; C57BL/6 mice, renal IRI, 60 mg/kg intraperitoneal, FIG. 1c", "value": "reduced damage to renal tubular epithelial cells"},
      {"measurement": "renal fibrosis, Trichrome stain", "setting": "[1]; C57BL/6 mice, renal IRI, 60 mg/kg intraperitoneal, FIG. 4a, 4b", "value": "fibrosis was significantly reduced"},
      {"measurement": "tissue damage due to ischemia-reperfusion (IRI-mediated damage)", "setting": "[1]", "value": "significantly attenuated IRI-mediated damage"},
      {"measurement": "tissue damage due to ischemia-reperfusion (IRI-mediated damage)", "setting": "[1]; listed as compound of Formula 1", "value": "exhibits an effect of alleviating tissue damage due to ischemia-reperfusion"},
      {"measurement": "NOX mRNA expression level in mouse kidney", "setting": "[2]", "value": "significantly reduced"},
      {"measurement": "reactive oxygen species (ROS) in the kidney", "setting": "[3]", "value": "effectively blocked ROS"},
      {"measurement": "Caspase-3 activity in the kidney", "setting": "[4]; FIG. 3a, 60 mg/kg", "value": "significant apoptosis alleviation effect; also recorded: reversed a decrease in Bcl-2 and an increase in Caspase-3 activity"},
      {"measurement": "apoptosis, TUNEL assay histological staining of kidney", "setting": "[4]; FIG. 3b", "value": "alleviated apoptosis"},
      {"measurement": "protein expression levels of apoptosis markers BCL-2 and BAX in the kidneys", "setting": "[4]; FIG. 3c, 60 mg/kg", "value": "effectively inhibited apoptosis; also recorded: reversed a decrease in Bcl-2"},
      {"measurement": "phosphorylation of ERK in kidney tissue (western blot)", "setting": "[5]", "value": "effectively reduced it; also recorded: affect ERK signaling"},
      {"measurement": "changes in oxidative stress-related enzymes, SOD and GXP production", "setting": "[6]", "value": "alleviated by ML171 treatment"},
      {"measurement": "expression of NOX-related genes / oxidative stress markers (NOX1, NOX2, p40)", "setting": "[6]; FIG. 6a-6e", "value": "effectively decreased; also recorded: reduced the expression of NOX1, NOX2 and p40"},
      {"measurement": "ROS production in cells", "setting": "[7]", "value": "significantly reduced ROS"},
      {"measurement": "Caspase-3 activity", "setting": "[8]; FIG. 7a", "value": "a decrease in Caspase-3 activity"},
      {"measurement": "protein expression levels of apoptosis markers BCL-2 and BAX", "setting": "[8]; FIG. 7b", "value": "apoptosis was significantly inhibited; also recorded: significant increase in Bcl-2 levels"},
      {"measurement": "apoptosis pattern, intracellular TUNEL assay staining", "setting": "[8]; FIG. 7c", "value": "effectively blocked it"},
      {"measurement": "ERK phosphorylation in MDCK cells", "setting": "[9]", "value": "significantly reduced and regulated this; also recorded: affect ERK signaling"}
    ]}
  ]
}
